# Measured values taken from patent US6613792B1, “Treatment of premenstrual syndrome and menopause” (Designed Nutritional Products, Inc., priority 1999, dated 2003).
# Columns and labels:
# [1] = system: menopausal symptoms; experiment: Case report of a subject with menopausal symptoms taking I3C capsules; type: in vivo, human; details: Subject E
# Method: Capsules containing 100 to 300 mg of 1H-indole-3-methanol (I3C™ from Designed Nutritional Products, Orem, Utah, U.S.) were made by placing that amount of 1H-indole-3-methanol into gelatin capsules. […] After the hysterectomy, Subject E had menopausal symptoms including hot flashes, occasional sweating profusion, grogginess after a full night's sleep, and almost continuous irritable bowel syndrome. Subject E started taking four 100 mg capsules of I3C™ per day, two capsules in the morning and two capsules in the late afternoon. […] Their hot flashes and excessive sweating disappeared after taking a few doses of I3C™.
# [2] = Reactivity/stability of 1H-indole-3-methanol in solvent, sunlight and heat (HPLC); type: physicochemical
# Method: Relatively pure 1H-indole-3-methanol (I3C™ from Designed Nutritional Products, Orem, Utah, U.S.) in a water solution was prepared for HPLC analysis. One sample was diluted with water and the other was diluted with methanol. […] In the course of manufacturing and formulating dietary supplements containing 1H-indole-3-methanol, it was observed that the carbinol in the three position is extremely reactive. […] In the course of heating at 60° C., 99% of the present 1H-indole-3-methanol will disappear from HPLC chromatograms, being replaced by as many as 40 or 50 different derived compounds, virtually all of them identified as containing an indole component. More detailed studies have shown that one of the first compounds to appear in a sample of 1H-indole-3-methanol undergoing heat treatment is ([…], a “dimer” of 1H-indole-3-methanol.
# [3] = system: premenstrual syndrome (PMS) symptoms; experiment: Case reports of subjects with premenstrual syndrome taking I3C capsules; type: in vivo, human
# Method: Capsules containing 100 to 300 mg of 1H-indole-3-methanol (I3C™ from Designed Nutritional Products, Orem, Utah, U.S.) were made by placing that amount of 1H-indole-3-methanol into gelatin capsules. Capsules containing 200 mg of 1H-indole-3-methanol (I3C™ from Designed Nutritional Products, Orem, Utah, U.S.) were made by placing that amount of 1H-indole-3-methanol into gelatin capsules. Subject A, commonly suffered from fatigue, moodiness, and bluish circles beneath their eyes prior to menstruation. During menses, which typically lasted for 7-10 days, they experienced menstrual cramping which required ibuprofen for relief. Subject A had taken I3C™ for three menstrual cycles. […] Subject B had taken I3C™ for one menstrual cycle. Their PMS symptoms prior to taking I3C™ included extreme fatigue, frequent migraine headaches, bloating, moodiness, and severe menstrual cramps. They started taking I3C™ with no knowledge of its effects or benefits. […] Subject C had been diagnosed and treated for endometriosis. Their PMS symptoms included fatigue, heavy blood flow (menorrhagia), severe menstrual cramps, and menses of approximately 10 days. Subject C had taken I3C™ for six cycles. […] Subject D, had taken I3C™ for ½ months and noticed a rapid change in their PMS symptoms.
# [4] = Subject C, endometriosis, six cycles
structure (smiles),measurement,setting,value
"OCc1c[nH]c2ccccc12 [I3C™, 1H-indole-3-methanol]","bowel, sleep and energy symptoms",[1]; four 100 mg capsules per day for one month,"bowel regularity, less sleep disturbances, and a steady energy level throughout the day"
same,hot flashes and excessive sweating,"[1]; partial hysterectomy, four 100 mg capsules per day, after a few doses",disappeared
same,1H-indole-3-methanol disappearing from HPLC chromatograms on heating,[2]; heating at 60° C.,99%
same,stability in the presence of sunlight,[2]; sunlight,change color in just a few hours
same,HPLC peaks after dilution with methanol (reaction to methyl ether),"[2]; water solution diluted with methanol, by the time of injection",two peaks of about the same magnitude
same,HPLC peaks after dilution with water,[2]; water solution diluted with water,only one peak
same,"PMS symptoms (fatigue, moodiness, bluish circles beneath eyes, menstrual cramping)","[3]; Subject A, I3C taken for three menstrual cycles",the above symptoms were alleviated
same,duration of menses,"[3]; Subject A, three menstrual cycles, typically 7-10 days before",approximately 4 days
same,"PMS symptoms (extreme fatigue, migraine headaches, bloating, moodiness, severe menstrual cramps)","[3]; Subject B, within one menstrual cycle",experienced only mild fatigue and their remaining symptoms were alleviated
same,fatigue,"[3]; Subject C, endometriosis, I3C taken for six cycles",ceased
same,menstrual blood flow,[3]; [4],decreased substantially
same,severity of menstrual cramps,[3]; [4],decreased
same,PMS symptoms after starting I3C again,"[3]; Subject C, restart after withdrawal",their symptoms were alleviated
same,duration of menses,"[3]; Subject C, six cycles, approximately 10 days before",approximately 5 days
same,PMS symptoms after stopping I3C for one menstrual cycle,"[3]; Subject C, withdrawal for one cycle",previous PMS symptoms returned
same,"PMS symptoms (bloating, headaches)","[3]; Subject D, I3C taken for ½ months",less bloating and reduced headaches
